Assay results from patent US20200129473A1, “USE OF ERIBULIN AND CYCLIN DEPENDENT KINASE INHIBITORS IN THE TREATMENT OF CANCER” (EISAI R&D MANAGEMENT CO., LTD., priority 2017, published 2020).
Like-named read-outs stand apart in the source and are kept apart here. One block for each compound: values may come before it.

Key:
[1] = test system: MDA-MB-436 human adenocarcinoma derived cancer cells; assay: Cell Titer-Glo growth inhibition, MDA-MB-436; type: cell-based
[2] = test system: ZR-75-1 human breast cancer cells; assay: Cell Titer-Glo growth inhibition, ZR-75-1; type: cell-based
[3] = test system: MCF-7 human breast cancer cells; assay: Cell Titer-Glo growth inhibition, MCF-7; type: cell-based
[4] = test system: panel of 12 human breast cancer cell lines; assay: Cell Titer-Glo growth inhibition, statements for the whole panel
Protocol: MCF-7 human breast cancer cells were cultured in RPMI 1640 medium supplemented with 10% fetal bovine serum (FBS), 2 mM glutamine, 10 mM 4-(2-hydroxyethyl)-1-piperazineethanesulfonic acid (HEPES), 0.075% sodium bicarbonate, 100 units/mL sodium penicillin G, 100 μg/mL streptomycin sulfate and 25 μg/mL gentamicin. T-47D human breast cancer cells were cultured in RPMI 1640 medium supplemented with 10% FBS, 4.5 g/L glucose, 2 mM glutamine, 10 mM HEPES, 0.2 units/mL Insulin, 1 mM sodium pyruvate, 100 units/mL sodium penicillin G, 100 μg/mL streptomycin sulfate and 25 μg/mL gentamicin. ZR-75-1 human breast cancer cells were cultured in RPMI 1640 medium supplemented with 10% FBS, 4.5 g/L glucose, 2 mM glutamine, 10 mM HEPES, 1 mM sodium pyruvate, 100 units/mL sodium penicillin G, 100 μg/mL streptomycin sulfate and 25 μg/mL gentamicin. MDA-MB-134-VI human breast cancer cells were cultured in Leibovitz's L-15 medium supplemented with 20% FBS, 2 mM glutamine, 100 units/mL sodium penicillin G, 100 μg/mL streptomycin sulfate and 25 μg/mL gentamicin. MDA-MB-175-VII human breast cancer cells were cultured in Leibovitz's L-15 medium supplemented with 10% FBS, 2 mM glutamine, 10 mM HEPES, 100 units/mL sodium penicillin G, 100 μg/mL streptomycin sulfate and 25 μg/mL gentamicin. […]

[5] = test system: MDA-MB-231 human breast cancer cells; assay: Cell Titer-Glo growth inhibition, MDA-MB-231; type: cell-based
[6] = test system: T-47D human breast cancer cells; assay: Cell Titer-Glo growth inhibition, T-47D; type: cell-based; details: T47D
[7] = test system: Hs578t human breast cancer cells; assay: Cell Titer-Glo growth inhibition, Hs578t; type: cell-based; details: Hs-578T
[8] = test system: BT-549 human breast cancer cells; assay: Cell Titer-Glo growth inhibition, BT-549; type: cell-based
[9] = test system: MDA-MB-415 human mammary gland/breast cancer cells; assay: Cell Titer-Glo growth inhibition, MDA-MB-415; type: cell-based
[10] = test system: MDA-MB-134-VI human breast cancer cells; assay: Cell Titer-Glo growth inhibition, MDA-MB-134VI; type: cell-based
[11] = test system: HCC70 human breast cancer cells; assay: Cell Titer-Glo growth inhibition, HCC70; type: cell-based
[12] = test system: HCC1806 human breast cancer cells; assay: Cell Titer-Glo growth inhibition, HCC1806; type: cell-based
[13] = test system: MDA-MB-175-VII human breast cancer cells; assay: Cell Titer-Glo growth inhibition, MDA-MB-175VII; type: cell-based
[14] = test system: OD-BRE-0745, an ER+, PR+, Her2− luminal B infiltrating ductal adenocarcinoma (patient-derived breast tumor); assay: Antitumor activity in OD-BRE-0745 PDX model; type: in vivo, Swiss nude mice; details: 150 mg/kg palbociclib, contribution of eribulin masked (FIGS. 10 and 12)
Protocol: A statistical test (analysis of variance) was performed to test for homogeneity between groups.

[15] = 72 h, read-out: Mean IC50, single agent Eribulin

SMILES: C=C1C[C@@H]2CC[C@@]34C[C@H]5O[C@H]6[C@@H](O3)[C@H]3O[C@H](CC[C@@H]3O[C@H]6[C@H]5O4)CC(=O)C[C@@H]3[C@@H](OC)[C@@H](C[C@H](O)CN)O[C@H]3C[C@H]3O[C@@H](CC[C@@H]1O2)C[C@@H](C)C3=C [Eribulin]
- IC50 ([1]; MDA-MB-436, 72 h, read-out: Mean IC50, single agent Eribulin): 0.86 nM
- IC50 ([1]; MDA-MB-436, read-out: Mean IC50 of eribulin dose response with constant 1 μM Palbociclib): 2.02 nM
- IC50 ([1]; MDA-MB-436, read-out: Mean IC50 of eribulin dose response with constant 10 μM Palbociclib): 6.25 nM
- IC50 ([2]; ZR-75-1, 72 h, read-out: Mean IC50, single agent Eribulin): > 1000 nM
- IC50 ([3]; MCF7, 72 h, read-out: Mean IC50, single agent Eribulin): 0.253 nM
- IC50 ([3]; MCF7, read-out: Mean IC50 of eribulin dose response with constant 1 μM Palbociclib): 0.598 nM
- IC50 ([4]; Homo sapiens, read-out: IC50, single agent, overall statement): < 1 nM
- Potentiation of eribulin growth inhibition by palbociclib ([4]; all cell lines, constant dose of 10 μM or 1 μM of palbociclib): No potentiation effect
- IC50 ([5]; MDA-MB-231, 72 h, read-out: Mean IC50, single agent Eribulin): 0.149 nM
- IC50 ([5]; MDA-MB-231, read-out: Mean IC50 of eribulin dose response with constant 1 μM Palbociclib): 1.45 nM
- IC50 [6, 15]: 0.188 nM
- IC50 [7, 15]: 0.354 nM
- IC50 ([7]; read-out: Mean IC50 of eribulin dose response with constant 1 μM Palbociclib): 14.6 nM
- IC50 ([7]; read-out: Mean IC50 of eribulin dose response with constant 10 μM Palbociclib): 0.797 nM
- IC50 ([8]; BT-549, 72 h, read-out: Mean IC50, single agent Eribulin): 0.289 nM
- IC50 ([8]; BT-549, read-out: Mean IC50 of eribulin dose response with constant 1 μM Palbociclib): 0.374 nM
- IC50 ([8]; BT-549, read-out: Mean IC50 of eribulin dose response with constant 10 μM Palbociclib): 0.849 nM
- IC50 ([9]; MDA-MB-415, 72 h, read-out: Mean IC50, single agent Eribulin): 0.403 nM
- IC50 ([10]; MDA-MB-134-VI, 72 h, read-out: Mean IC50, single agent Eribulin): 0.491 nM
- IC50 ([10]; MDA-MB-134-VI, read-out: Mean IC50 of eribulin dose response with constant 1 μM Palbociclib): 21 nM
- IC50 ([11]; HCC70, 72 h, read-out: Mean IC50, single agent Eribulin): 0.454 nM
- IC50 ([11]; HCC70, read-out: Mean IC50 of eribulin dose response with constant 1 μM Palbociclib): 0.377 nM
- IC50 ([11]; HCC70, read-out: Mean IC50 of eribulin dose response with constant 10 μM Palbociclib): 21.5 nM
- IC50 ([12]; HCC1806, 72 h, read-out: Mean IC50, single agent Eribulin): 0.142 nM
- IC50 ([12]; HCC1806, read-out: Mean IC50 of eribulin dose response with constant 1 μM Palbociclib): 0.273 nM
- IC50 ([13]; Homo sapiens, MDA-MB-175-VII, 72 h, 72 h drug exposure, read-out: Mean IC50, single agent Eribulin): 0.12 nM
- IC50 ([13]; Homo sapiens, MDA-MB-175-VII, eribulin 3.8 pM to 1 μM, constant 10 μM palbociclib, read-out: Mean IC50 of eribulin dose response with constant 10 μM Palbociclib): 92.9 nM
- IC50 ([13]; eribulin 3.8 pM to 1 μM, constant 10 μM palbociclib, listed as Eribufin, read-out: Mean IC50 of eribulin dose response with constant 10 μM Palbociclib): 92.2 nM

- IC50 ([1]; MDA-MB-436, 72 h drug exposure, read-out: Mean IC50, single agent Palbociclib): 2990 nM
- IC50 ([2]; ZR-75-1, 72 h drug exposure, read-out: Mean IC50, single agent Palbociclib): > 10000 nM
- IC50 ([3]; MCF7, MCF-7, 72 h drug exposure, read-out: Mean IC50, single agent Palbociclib): > 10000 nM
- IC50 ([5]; MDA-MB-231, 72 h drug exposure, read-out: Mean IC50, single agent Palbociclib): 392 nM
- IC50 ([6]; T-47D, 72 h drug exposure, read-out: Mean IC50, single agent Palbociclib): > 10000 nM
- IC50 ([7]; Hs578t, 72 h drug exposure, read-out: Mean IC50, single agent Palbociclib): > 10000 nM
- IC50 ([8]; BT-549, 72 h drug exposure, read-out: Mean IC50, single agent Palbociclib): > 10000 nM
- IC50 ([9]; MDA-MB-415, 72 h drug exposure, read-out: Mean IC50, single agent Palbociclib): 1630 nM
- IC50 ([10]; MDA-MB-134VI, 72 h drug exposure, read-out: Mean IC50, single agent Palbociclib): 2440 nM
- IC50 ([12]; HCC1806, 72 h drug exposure, read-out: Mean IC50, single agent Palbociclib): > 10000 nM
SMILES: CC(=O)c1c(C)c2cnc(Nc3ccc(N4CCNCC4)cn3)nc2n(C2CCCC2)c1=O [Palbociclib, 6-acetyl-8-cyclopentyl-5-methyl-2-[(5-piperazin-1-ylpyridin-2-yl)amino]pyrido[2,3-d]pyrimidin-7-one]
- Tumor response at the higher amount of palbociclib [14]: overwhelmed the response
- IC50 ([11]; HCC70, 72 h drug exposure, read-out: Mean IC50, single agent Palbociclib): > 10000 nM
